Results reported in the METLIN SMRT retention time set (Domingo-Almenara et al. 2019).

experiment: gradient 5% acetonitrile 3 min, to 50% in 2 min, to 85% in 15 min, held 3 min, 100 µL/min; conditions: column: Zorbax Extend-C18 2.1 x 50 mm; eluents: water / acetonitrile, 0.1% formic acid
Method in brief: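 Each retention time is based on an adduct peak selected computationally and verified by manual inspection. Measurements used HPLC–quadrupole time-of-flight mass spectrometry in positive and negative ionization mode on mixtures of ~100 pure standards. Chromatography ran on a Zorbax Extend-C18 column (2.1 × 50 mm, 1.8 μm) at 100 μL/min with water and acetonitrile, each containing 0.1% formic acid, and dead and dwell volumes of 40 μL and 900 μL.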

Row | SMILES | RP-LC retention time
1 | CCOC(=O)c1c(C)oc2nc(C)nc(NCc3cccc(OC)c3)c12 | 1080 s
2 | CCC(C)NC(=O)N1CCCN(C2=NS(=O)(=O)C(c3ccccc3)=C2C)CC1 (centres undefined) | 748 s
3 | Cc1cc(N2CCOCC2)n2nc(CN3CCN(c4ccccc4C)CC3)nc2n1 | 636 s
4 | Cc1nc(CC(=O)Nc2nc(-c3ccc(F)cc3)c(C)s2)cs1 | 894 s
5 | O=C1NC(c2ccccc2)(C(F)(F)F)SC2=NCCCN12 (centres undefined) | 584 s
6 | O=C(NCCc1ccccc1)N1CCC(n2c(-c3ccoc3)nc3cccnc32)C1 (centres undefined) | 725 s
7 | COCCn1c(C)c(C)c(S(=O)(=O)c2ccc(F)cc2)c1NC(=O)C1CCCO1 (centres undefined) | 839 s
8 | Cc1ccc(N2CC(c3nc(-c4ccccc4F)no3)CC2=O)cc1C (centres undefined) | 1020 s
9 | Cc1ccc(CNC(=O)CN2CCN(Cc3ccccc3C)C(=O)C2=O)cc1 | 779 s
10 | Cn1nccc1C(=O)N1CCc2c([nH]c3ccccc23)C1c1ccc(Cl)cc1 (centres undefined) | 1080 s
11 | O=C(CCCn1nnc2ccccc2c1=O)Nc1nc2ccccc2[nH]1 | 570 s
12 | CCOCC(=O)N1CCCCCNC(=O)[C@@H]2CCCC[C@@H]21 | 657 s
13 | COc1ccc2c(C)cc(SCC(=O)Nc3c(C)cccc3C)nc2c1 | 995 s
14 | Cc1cc2nc(C(=O)OC(C)C)c(N3CCN(c4ccccn4)CC3)nc2cc1C | 791 s
15 | CCOc1ccc(NC(=O)NC(C)C(=O)N2CCc3ccccc32)cc1 (centres undefined) | 855 s
16 | Cc1cc(C)cc(C(=O)N2CCN(S(=O)(=O)c3cc4c5c(c3)CCC(=O)N5CCC4)CC2)c1 | 815 s
17 | Cc1ccccc1CNC(=O)c1ncn2c1C(=O)N(C1CC1)C(C)(C(=O)NCc1ccc(F)cc1)C2 (centres undefined) | 798 s
18 | COc1ccc(-c2noc(CN3C(=O)COc4ccccc43)n2)c(OC)c1 | 887 s
19 | Cc1nc(-c2ccccc2)sc1C(=O)N1CCC(CC(=O)N2CCOCC2)CC1 | 667 s
20 | Cc1noc(C)c1CCC(=O)N1CCCCC1c1nncn1C (centres undefined) | 607 s

Row | SMILES | RP-LC retention time
21 | Cc1cc(=O)n(CC(=O)Nc2cccc(F)c2)c(N2CCCC2)n1 | 634 s
22 | COc1ccc(OC)c(Nc2c(-c3ccc(N(C)C)cc3)nc3cnccn23)c1 | 796 s
23 | Cc1nnc(-c2cccc(Cl)c2)nc1NC(C)C | 717 s
24 | COCCc1noc(COC2CCCN(C(=O)c3ccoc3)C2)n1 (centres undefined) | 668 s
25 | CCCCNC(=O)c1cnn(-c2cc(-c3nc(C)no3)ccn2)c1C | 853 s
26 | Cc1sc(-c2nnc(C3CC3)o2)cc1NC(=O)Cc1ccccc1F | 944 s
27 | Cc1c(Cl)cccc1Nc1c(-c2cccc(O)c2)nc2cnccn12 | 813 s
28 | CSc1ccc(CNC(=O)CN2CCc3[nH]c4c(C)c(C)ccc4c(=O)c3C2)cc1 | 638 s
29 | Cn1c(=O)sc2cc(S(=O)(=O)N3CCC(C(=O)NC4CCCCC4)CC3)ccc21 | 822 s
30 | O=C(NCc1ccc2c(c1)OCO2)NCc1ccc2c(c1)OCO2 | 692 s
31 | NC(=O)c1oc2ccccc2c1NC(=O)C1CCCCN1S(=O)(=O)c1cccs1 (centres undefined) | 825 s
32 | Cc1nc(C)c(C(=O)Nc2ccc(F)cc2F)s1 | 755 s
33 | CCCNC(=O)C1CCCN(c2ccc(SCC(=O)Nc3c(C)cccc3C)nn2)C1 (centres undefined) | 651 s
34 | CN(C)c1cccc(-c2nc(-c3ccc4c(c3)nnn4CCN3CCOCC3)no2)c1 | 706 s
35 | CCS(=O)(=O)N1CCCc2cc(C(=O)NC3CCCCC3)ccc21 | 656 s
36 | COc1ccc(NC(=O)N2CCc3c(c(-c4nnc(-c5ccc(F)cc5)o4)nn3C)C2)cc1OC | 766 s
37 | O=C([C@@H]1C[C@H](Oc2ccccc2)CN1C(=O)C1CCCC1)N1CCCC1 | 784 s
38 | CCNc1cc(N2CCC(CCC(=O)NCc3ccccc3Cl)CC2)ncn1 | 585 s
39 | Cc1ccc(-n2nc(C)c3c(=O)n(CC(=O)N4CCN(c5cc(Cl)ccc5C)CC4)ccc32)cc1 | 1100 s
40 | Cc1cc(C)cc(Nc2c(-c3ccc(O)cc3)nc3ncccn23)c1 | 705 s

Row | SMILES | RP-LC retention time
41 | CN(C)CCCNc1oc(-c2ccccc2F)nc1S(=O)(=O)c1ccccc1 | 666 s
42 | O=C(NCCc1ccccc1)c1nnc(-c2ccc(S(=O)(=O)N3CCOCC3)cc2)o1 | 845 s
43 | CCC(C(=O)N1CCN(c2cc(C)n3cnnc3n2)CC1)c1ccccc1 (centres undefined) | 864 s
44 | CN1CCC(N2CCN(C(=O)CCC3CCCN(c4cc(NC5CC5)ncn4)C3)CC2)CC1 (centres undefined) | 534 s
45 | O=C(NCCN1CCOCC1)C1CCN(c2ccc3nnc(-c4ccccc4F)n3n2)CC1 | 693 s
46 | N#Cc1c(N)nc(SCc2csc(-c3ccc(Cl)cc3)n2)c(C#N)c1-c1ccc(OCCO)cc1 | 1130 s
47 | COc1ccc(-c2noc(Cc3nnc(-c4cc(F)cc(F)c4)o3)n2)cc1OC | 924 s
48 | O=C1CC(c2noc(-c3cc(F)ccc3F)n2)CN1c1ccc(F)c(Cl)c1 (centres undefined) | 1110 s
49 | CNC(=O)[C@@H]1CN(C(=O)CCc2cc(OC)no2)C[C@H]1c1nc(C)no1 | 620 s
50 | COc1cc(OC)c(NC(=O)NCC(c2cccnc2)c2cn(C)c3ccccc23)cc1Cl (centres undefined) | 741 s
51 | Cc1nnc2ccc(-c3noc(Cc4cccc(Cl)c4)n3)cn12 | 871 s
52 | CCn1cc(C(=O)Nc2cccc(C)c2)c(S(=O)(=O)N2CCSCC2)n1 | 902 s
53 | O=C(Cc1ccc(NC(=O)Nc2ccc3c(c2)OCO3)cc1)NCC(F)(F)F | 716 s
54 | CCOC(=O)c1csc(NC(=O)C2CCCN(c3cc(-n4cccn4)ncn3)C2)n1 (centres undefined) | 796 s
55 | COC(=O)[C@H](CCCN=C(N)N)NS(=O)(=O)c1ccc(C)cc1 | 667 s
56 | CCn1cc(-c2ccc(F)cc2)cc1C(=O)N1CCC2(CC1)OCCO2 | 963 s
57 | Cc1nn(CC(=O)NCCN2CCCCC2)c(=O)c2nc(-c3ccccc3)sc12 | 623 s
58 | CCc1ccccc1NC(=O)N1CCC(OC2CCN(S(C)(=O)=O)CC2)CC1 | 770 s
59 | COc1cccc(F)c1-c1nc(C)c(C(=O)Nc2nc3ccccc3[nH]2)s1 | 779 s

The next lines start with the values.

Row | RP-LC retention time | SMILES
60 | 731 s | CCCN(CC1CCOC1)C(=O)Nc1c(F)cccc1F (centres undefined)
61 | 594 s | Cc1nn(-c2ccc(N3CCCCC3)nn2)c(C)c1CCC(=O)N1CCN(c2ccccn2)CC1
62 | 670 s | COc1ccc2c(C)c(CCC(=O)N3CCC(C(N)=O)CC3)c(=O)oc2c1C
63 | 789 s | COC(=O)C1=CN(c2ccc(F)c(F)c2)c2ccccc2S1(=O)=O
64 | 567 s | Cc1nnc(CNC(=O)c2cccc(-n3cnnn3)c2)o1
65 | 709 s | Cc1cc(C)nc(Nc2nc(-c3ccccc3)c3ccccc3n2)n1
66 | 579 s | CS(=O)(=O)N1CCC(C(=O)N2CC(c3nc(-c4ccccn4)no3)C2)CC1
67 | 663 s | Cc1ccc(N(C)S(=O)(=O)c2cc3n(c2)CCCNC3=O)cc1
68 | 605 s | CC1CC(C)CN(CCCNC(=O)c2ccc3c(c2)NC(=O)CS3)C1 (centres undefined)
69 | 789 s | Cc1ccc2c(c1)C(O)(CC(=O)c1cccc(Br)c1)C(=O)N2 (centres undefined)
70 | 1010 s | Cc1cc(C)cc(N2CC(c3nc(-c4ccccc4F)no3)CC2=O)c1 (centres undefined)
71 | 711 s | COCc1noc([C@@H]2CC(F)(F)CN2C(=O)C(C)C)n1
72 | 653 s | O=C(Nc1ccc(Cl)cc1)c1cccnc1-n1cc(-c2ccncc2)cn1
73 | 764 s | COc1ccc(CC(=O)N2C[C@@H]3C[C@H]2C[C@@H]3NC(=O)c2cccs2)cc1Cl
74 | 1200 s | COc1cccc(Cn2c(=O)c3sccc3n(Cc3nc(-c4ccc(C)c(C)c4)no3)c2=O)c1
75 | 507 s | COc1cccc(CNC(=O)c2cc3cn(C4CC4)cc3s2)c1OC
76 | 651 s | COc1ccc(NC(=O)C2(C)Oc3cccnc3NC2=O)cc1OC (centres undefined)
77 | 676 s | Cc1noc(C)c1-c1ccc(S(=O)(=O)N2CCN(c3ccccn3)CC2)cc1
78 | 605 s | COc1ccc(NC(=O)C2CCN(c3cncnc3N3CCOCC3)CC2)cc1
79 | 718 s | Cc1cc(C)cc(NC(=O)N2CCC(OC3CCN(S(C)(=O)=O)CC3)CC2)c1
80 | 994 s | O=C(Nc1cc(F)ccc1Cl)c1csc(-c2ccc(N3CCCC3)nc2)n1
81 | 860 s | O=C(NCCCn1c(C(F)(F)F)nc2cccnc21)Nc1ccccc1Br
82 | 804 s | COCCNC(=O)C1CCN(c2nc3ccc(-c4cccc(OC)c4)nc3s2)CC1
83 | 872 s | O=C(CSc1nnc(-c2ccccc2F)o1)N1CCCc2ccccc21
84 | 581 s | Nc1ncnc2c1ncn2C=C=CCO
85 | 648 s | O=C(Cc1cccc(F)c1)N1CC(N2CC(C(=O)N3CCCC3)CC2=O)C1 (centres undefined)
86 | 723 s | CCOC(=O)C(=O)Nc1cccc(F)c1
87 | 879 s | CCCN1C(=O)c2c(C(=O)NCc3cccc(C)c3)ncn2CC1(C)C(=O)NCCC(C)C (centres undefined)
88 | 616 s | CC(=O)c1ccc(Nc2c(C(=O)OC(C)C)cnc3nc(C)ccc23)cc1
89 | 966 s | O=C(CSc1ccc(NC(=O)c2ccco2)cc1)Nc1nc(-c2ccccc2)cs1
